The subject of experiment [1] is Male CD-1 mice. The experiment is described as follows: 24-hour inhibitory avoidance task in mice, drug-in-diet dosing. Format: in vivo. The note with it: drug-in-diet 10 and 100 mg/kg/day in Western diet, tested from day 17, vs vehicle control mice (FIG. 1). On the procedure: The 24-hour inhibitory avoidance task in mice is a measure of one-trial learning and memory consolidation in response to a discrete aversive event (foot-shock). Mice are first placed in an illuminated compartment of a two-compartment apparatus. Mice will naturally step through into an adjoining dark compartment, which they prefer. When the mice enter the dark they receive a mild foot-shock. To assess memory, mice are tested 24 hours later and the length of time the animal refrains from entering the dark compartment is recorded (higher latencies indicate improved memory for the aversive event).
(§1) Male CD-1 mice were obtained from Charles River, Wilmington, Mass. Mice were group-housed 10 per cage. The body weight upon arrival was 20-25 g. Food and water were available ad libitum except during experiments. […]
On the first day of testing (17 days after drug-in-diet was presented) mice were removed from the colony room in their home cage, brought to the testing room, and left undisturbed for 2 hours prior to testing initiation. […] The latency to enter the dark chamber was recorded and was the dependent variable measured for assessing memory retention (latency is defined as entry of the whole mouse; all 4 paws on the grids in the dark side, plus the tail in the chamber for 5 sec; 180 sec is maximum latency). Data were analyzed using Mann Whitney U comparisons. […]

Experiment [2] deals with phosphorylated CREB. As to the kind of experiment: Phosphorylated CREB immunohistochemistry in brain after food-in-diet dosing. It counts as in vivo, mice. The note with it: 18 days food-in-diet, 10 and 100 mg/kg/day (FIG. 2). On the procedure:
In vivo signaling studies were conducted to examine the biochemical pathways that may be mechanistically involved in the cognitive efficacy associated with Compound AA. An important signaling process that serves as a biochemical correlate of synaptic plasticity underlying learning and memory is the phosphorylation of CREB (c-AMP-response element binding protein), a transcription factor critical to long-term memory.
as §1
Following perfusion, brains were removed and postfixed in 20% sucrose-PBS (phosphate buffered saline) overnight and subsequently cut on a cryostat (40 μm coronal sections) and collected as free-floating sections in PBS. […] Immuno-reactivity (IR) was quantified using an image analysis system (Leica, Quantimet 500) that determined number and/or area of peroxidase substrate-positive stained neurons from digitized photomicrographs according to a pixel gray level empirically determined prior to analysis. Overall statistical significance was determined using a one-way ANOVA, with Dunnett's post hoc analyses used to determine significance (p<0.05 was considered significant).

In experiment [3] the test system is Male CD-1 mice. The experiment is described as follows: 24-hour inhibitory avoidance in mice, subchronic (3 administration) dosing. It counts as in vivo. The note with it: 30 mg/kg PO, BID the day before training and one hour before training, vs vehicle control mice (FIG. 3). On the procedure: Male CD-1 mice were obtained from Charles River, Wilmington, Mass. Mice were group-housed 10 per cage. The body weight upon arrival was 20-25 g. Food and water were available ad libitum except during experiments. Animals were acclimated to the animal facilities for a period of at least one week prior to commencement of experiments. Animals were tested in the light phase of a 12-hour light:12-hour dark schedule (lights on 0600 hours).
Compound AA and Compound BB were synthesized at Abbott Laboratories. […] Compound AA was administered in a cloudy, fine suspension, while Compound BB was administered in a solution.
On training day, mice were injected with Compound AA, Compound BB or vehicle one-hour PO before training. One hour following injection (start of training) mice were subjected to a training session in which they were placed in a lighted compartment of a two-compartment chamber (Gemini apparatus, San Diego Instruments, San Diego, Calif.) with a manually operated gate separating the compartments. […] Twenty-four hours later mice were again tested in the same apparatus, except without shock, and the transfer latency from the lighted to the dark compartment recorded and used as an index of memory for the punished response 24 hours earlier. […] Data were analyzed using Mann Whitney U comparisons. […]

The test system of experiment [4] is HSD-1. The experiment is described as follows: Monkey ex vivo HSD1 activity (cortisone to cortisol in harvested tissue). More on the design: species or system Cynomolgus Monkeys. On the procedure: Harvested tissues (approximately 150 mg) were minced into small, 2 mm pieces in the presence of 5× volume of incubation buffer. Cortisone at final concentrations of 0, 3, 10 or 30 μM was added to each well. Cell culture plates with tissues were incubated at 37° C. for three hours. Two-hundred μL of tissue culture supernatant was then removed and spun at 1000 rpm in an Eppindorf tube, and then 100 μL of resulting supernatant was aliquotted into two tubes for LCMS analysis of cortisol.

The subject of experiment [5] is Male Sprague Dawley rats. The experiment is described as follows: Short-term social recognition memory in the rat. Format: in vivo. Conditions: 30 mg/kg po at 24, 18 and 1 hour before first juvenile exposure, vs vehicle control rats (FIG. 4). As to the method: Social memory and social cognition are impaired in disorders such as Alzheimer's disease and schizophrenia. One of the more commonly used preclinical models of social recognition memory is short-term social recognition in the rat, a model of short-term memory based on the recognition of a juvenile rat by an adult rat. […] The juvenile rat is then removed and reintroduced 120 min later, and interactive behavior of the adult rat is again monitored. If memory has been lost over the interval between trials 1 and 2, the extent of interaction is equal (expressed as a ratio of investigation time of T1/T2) and the ratio will be close to 1. However, if the adult remembers the juvenile, the investigation ratio declines. To test for non-specific effects, a novel juvenile is introduced at 120 minutes instead of the familiar juvenile. […]
Rats were pre-dosed po at 24, 18 and 1 hour before first juvenile rat exposure with vehicle, or Compound CC (30 mg/kg). […] The time the adult spent exploring (sniffing, grooming, close following) the juvenile during this test session was recorded, and defined as the first investigation duration. […] Data were analyzed using a one-way analysis of variance. If there was a significant effect, subsequent post hoc significance was determined using Dunnett's multiple comparison testing (p<0.05 was regarded as significant).

Experiment [6] concerns Fisher rats. The experiment is described as follows: Rat wake EEG power spectrum and REM sleep parameters. Format: in vivo. Conditions: 30 mg/kg, 3 times at 24, 26, and 0.1 hours before measurement. As to the method: EEG of Fisher rats (n=8/group) with chronically implanted supracortical EEG-electrodes were analyzed for an 8 h period. Intraindividual drug-induced changes of power spectra were analyzed. For REM sleep the number of REM episodes, latency to first REM, and total REM time was analyzed.

Experiment [7] deals with acetylcholine release (mPFC, hippocampus). As to the kind of experiment: Microdialysis, cortical/hippocampal acetylcholine release. Format: in vivo, rat. Conditions: single administration 30 mg/kg, p.o. As to the method:
(§2) Microdialysis studies (resting or challenging conditions) in freely moving, male Sprague Dawley rats (Janvier, 295-315 g, n=5-8/treatment group) were performed using stereotactically instrumented microdialysis probes (CMA/12-14-2): mPFC, hippocampus. Aliquots of the same microdialysate fractions (6 before, and 9-12 after compound administration) were analyzed either for acetylcholine or for serotonin by HPLC and electrochemical detection.

For experiment [8], the system named is serotonin (5-HT) levels (medial prefrontal cortex, hippocampus). The experiment is described as follows: Microdialysis, cortical/hippocampal serotonin release. Format: in vivo, rat. The note with it: single administration 30 mg/kg, p.o.; medial prefrontal cortex and hippocampus (FIGS. 7a, 7b). As to the method:
as §2
This is a feature shared by marketed anti-depressive drugs and might indicate the potential use for 11β-HSD1 inhibitors as antidepressants/anxiolytic drugs. These findings remain to be confirmed by (i) investigating 11β-HSD1 inhibitors from different chemotype(s) in selected microdialysis studies and/or (ii) in animal models of depression/anxiety.

Here are results for 3 molecules from patent US20090192198A1, “INHIBITORS OF THE 11-BETA-HYDROXYSTEROID DEHYDROGENASE TYPE 1 ENZYME” (Abbott Laboratories, priority 2005, published 2009).

Molecules are shown by their SMILES.

With `CC(C)(Oc1ccc(F)cc1Cl)C(=O)NC1C2CC3CC1CC(S(C)(=O)=O)(C3)C2` (stereo not shown) [S, 2-(2-Chloro-4-fluorophenoxy)-2-methyl-N-[(E)-5-(methylsulfonyl)-2-adamantyl]propanamide], the “memory retention (Mean Transfer Latency), 24-hour inhibitory avoidance” value in experiment [1] is recorded as “significant improvement in memory retention”. The “phosphorylated CREB immuno-reactivity” value in experiment [2] is recorded as “increase in phosphorylated CREB”. For the same molecule, the “memory retention (transfer latency), 24-hour inhibitory avoidance” value in experiment [3] is given as “significant improvement in memory retention”. In experiment [4] (2.5 and 16 hours following a single oral 10 mg/kg dose), the “ex vivo inhibition of monkey brain, fat and liver HSD1” value is recorded as “potent ex vivo inhibition”. Also, the “HSD-1 ex vivo activity, Mean % Veh Control” value in experiment [4] (Cerebral Cortex, 16 hours after single 10 mg/kg oral dose) turned out to be 30%; in experiment [4] (Hippocampus, 16 hours after single 10 mg/kg oral dose), 42%; in experiment [4] (Liver, 2.5 hours after single 10 mg/kg oral dose), 38%; in experiment [4] (Liver, 16 hours after single 10 mg/kg oral dose), 9%; in experiment [4] (Mesenteric Fat, 2.5 hours after single 10 mg/kg oral dose) it was 90%; in experiment [4] (Mesenteric Fat, 16 hours after single 10 mg/kg oral dose) it was 50%.
As to `CC(C)(Oc1ccc(Cl)cc1)C(=O)NC1C2CC3CC1CC(/C(N)=N/O)(C3)C2` (stereo not shown) [P, N-{(E)-5-[(Z)-Amino(hydroxyimino)methyl]-2-adamantyl}-2-(4-chlorophenoxy)-2-methylpropanamide], in experiment [3], the “memory retention (transfer latency), 24-hour inhibitory avoidance” value is on record as “significant improvement in memory retention”.
For `O=C(CN1CCN(c2ccc(C(F)(F)F)cn2)CC1)NC1C2CC3CC1CC(O)(C3)C2` (stereo not shown) [Compound CC, N-[(E)-5-Hydroxy-2-adamantyl]-2-{4-[5-(trifluoromethyl)pyridin-2-yl]piperazin-1-yl}acetamide], the “short-term memory retention (social recognition)” value in experiment [5] is “significant improvement in short-term memory retention”. For the same molecule, the “reduction of total sleep time” value in experiment [6] (8 h period) is 10%. Moreover, the “reduction of number of REM sleep episodes” value in experiment [6] (8 h period (FIG. 5a)) was 16%. Also, in experiment [6] (8 h period (FIG. 5b)), the “reduction of REM time” value is reported as 23%. Further, the “increase of latency to first REM” value in experiment [6] (8 h period (FIG. 5c)) was found to be 62%. Moreover, the “ACh release under resting conditions” value in experiment [7] (acute) is given as “did not change ACh release”. Also, the “ACh release under challenging conditions (home cage to novel cage and back)” value in experiment [7] (cortex and hippocampus (FIGS. 6a-6c)) is given as “did not induce any further stimulation of ACh release”. In addition, in experiment [8], the “microdialysate serotonin (5-HT) levels” value was “long-lasting increase of serotonin (5-HT) levels”.
